Assay results reported in ChEMBL document CHEMBL4325829, “Design and Synthesis of Tubulin and Histone Deacetylase Inhibitor Based on iso-Combretastatin A-4” (J Med Chem, 2018).
The source made the active and inactive calls. No cut-off for these calls is given here.

What was measured:
[1] = target: Histone deacetylase 2 (Homo sapiens) (UniProt Q92769); experiment: Inhibition of human recombinant HDAC2 at 10^-5 M after 15 mins using fluorogenic substrate by fluorimetric assay relative to control
[2] = target: Histone deacetylase 4 (Homo sapiens) (UniProt P56524); experiment: Inhibition of human recombinant HDAC4 at 10^-5 M after 30 mins using fluorogenic substrate by fluorimetric assay relative to control
[3] = target: Histone deacetylase 3 (Homo sapiens) (UniProt O15379); experiment: Inhibition of human recombinant HDAC3 at 10^-5 M after 10 mins using fluorogenic substrate by fluorimetric assay relative to control
[4] = target: T1, Histone deacetylase 8 (Homo sapiens) (UniProt Q9BY41); experiment: Inhibition of human recombinant HDAC8 at 10^-5 M after 60 mins using fluorogenic substrate by fluorimetric assay relative to control
T1 sequence (whole entry): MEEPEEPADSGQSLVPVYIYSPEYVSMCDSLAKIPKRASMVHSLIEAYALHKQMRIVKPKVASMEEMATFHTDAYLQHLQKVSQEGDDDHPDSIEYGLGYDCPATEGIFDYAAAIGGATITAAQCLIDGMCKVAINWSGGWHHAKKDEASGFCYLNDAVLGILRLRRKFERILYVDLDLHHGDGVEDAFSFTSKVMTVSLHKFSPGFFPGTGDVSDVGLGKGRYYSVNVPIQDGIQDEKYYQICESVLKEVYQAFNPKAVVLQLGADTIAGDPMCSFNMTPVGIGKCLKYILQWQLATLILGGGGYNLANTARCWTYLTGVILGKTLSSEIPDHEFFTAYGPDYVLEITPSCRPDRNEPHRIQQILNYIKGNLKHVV

PC-3 = experiment: Antiproliferative activity against human PC3 cells after 72 hrs by MTS assay; format: functional; settings: Homo sapiens, PC-3, 72 h
[5] = Inhibition of sheep brain tubulin polymerization assessed as reduction in rate of microtubule assembly by DAPI-fluorescence based assay; design: species or system Ovis aries
U-87 MG = experiment: Antiproliferative activity against human U87 cells after 72 hrs by MTS assay; format: functional, U-87MG ATCC; settings: Homo sapiens, U-87 MG, 72 h
BXPC-3 = experiment: Antiproliferative activity against human BxPC3 cells after 72 hrs by MTS assay; format: functional; settings: Homo sapiens, BXPC-3, 72 h
HT-29 = experiment: Antiproliferative activity against human HT-29 cells after 72 hrs by MTS assay; format: functional; settings: Homo sapiens, HT-29, 72 h
[6] = target: Polyamine deacetylase HDAC10 (Homo sapiens) (UniProt Q969S8); experiment: Inhibition of human recombinant HDAC10 at 10^-5 M after 45 mins using fluorogenic substrate by fluorimetric assay relative to control
[7] = Lipophilicity, log P of the compound; format: physicochemical; settings: octanol/water
[8] = Induction of apoptosis in human BL2 cells assessed as early apoptotic cells at 10 nM after 48 hrs by annexin V-FITC/propidium iodide double staining-based flow cytometry (reference value: 8.2%); format: functional
K-562R = experiment: Antiproliferative activity against human K562R cells after 72 hrs by MTS assay; format: functional; settings: Homo sapiens, K-562R, 72 h
K562 = experiment: Antiproliferative activity against human K562 cells after 72 hrs by MTS assay; format: functional; settings: Homo sapiens, K562, 72 h
MCF7 = experiment: Antiproliferative activity against human MCF7 cells after 72 hrs by MTS assay; format: functional; settings: Homo sapiens, MCF7, 72 h
[9] = target: Histone deacetylase 7 (Homo sapiens) (UniProt Q8WUI4); experiment: Inhibition of human recombinant HDAC7 at 10^-5 M after 45 mins using fluorogenic substrate by fluorimetric assay relative to control
MIA PaCa-2 = experiment: Antiproliferative activity against human MIAPaCa2 cells after 72 hrs by MTS assay; format: functional; settings: Homo sapiens, MIA PaCa-2, 72 h
[10] = target: Histone deacetylase 5 (Homo sapiens) (UniProt Q9UQL6); experiment: Inhibition of human recombinant HDAC5 at 10^-5 M after 30 mins using fluorogenic substrate by fluorimetric assay relative to control
Histone deacetylase 11 = target: T2, Histone deacetylase 11 (Homo sapiens, UniProt Q96DB2); experiment: Inhibition of human recombinant HDAC11 after 30 mins using fluorogenic substrate by fluorimetric assay
T2 sequence (Q96DB2 whole entry): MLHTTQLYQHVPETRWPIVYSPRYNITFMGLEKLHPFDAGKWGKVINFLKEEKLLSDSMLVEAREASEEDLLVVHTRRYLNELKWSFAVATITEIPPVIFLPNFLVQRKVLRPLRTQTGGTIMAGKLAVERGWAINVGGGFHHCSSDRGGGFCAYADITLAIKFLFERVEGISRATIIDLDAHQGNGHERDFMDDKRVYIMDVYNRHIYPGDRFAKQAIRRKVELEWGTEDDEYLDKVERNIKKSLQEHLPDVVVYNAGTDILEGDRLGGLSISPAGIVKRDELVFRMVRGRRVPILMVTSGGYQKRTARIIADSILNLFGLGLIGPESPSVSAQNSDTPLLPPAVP

Sequence of Polyamine deacetylase HDAC10 (Homo sapiens) (Q969S8 whole entry): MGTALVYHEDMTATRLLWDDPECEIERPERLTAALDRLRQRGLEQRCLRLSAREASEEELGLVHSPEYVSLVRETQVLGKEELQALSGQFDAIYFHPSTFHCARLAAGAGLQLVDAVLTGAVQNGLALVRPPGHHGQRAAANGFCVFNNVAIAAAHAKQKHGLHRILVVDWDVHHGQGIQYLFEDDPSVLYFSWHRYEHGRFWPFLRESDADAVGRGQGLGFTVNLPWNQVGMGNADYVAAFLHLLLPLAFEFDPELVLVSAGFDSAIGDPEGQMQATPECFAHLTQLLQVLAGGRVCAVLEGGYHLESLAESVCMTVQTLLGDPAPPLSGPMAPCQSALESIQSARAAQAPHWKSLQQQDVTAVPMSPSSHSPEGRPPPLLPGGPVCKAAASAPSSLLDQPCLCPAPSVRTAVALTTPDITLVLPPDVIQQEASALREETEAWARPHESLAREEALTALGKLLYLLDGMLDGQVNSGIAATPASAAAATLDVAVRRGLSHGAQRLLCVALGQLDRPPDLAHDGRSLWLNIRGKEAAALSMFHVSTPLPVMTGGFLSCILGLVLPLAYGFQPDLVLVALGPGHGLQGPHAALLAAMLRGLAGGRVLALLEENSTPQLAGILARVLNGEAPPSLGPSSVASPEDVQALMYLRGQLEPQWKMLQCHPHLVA
Sequence of Histone deacetylase 5 (Homo sapiens) (Q9UQL6 whole entry): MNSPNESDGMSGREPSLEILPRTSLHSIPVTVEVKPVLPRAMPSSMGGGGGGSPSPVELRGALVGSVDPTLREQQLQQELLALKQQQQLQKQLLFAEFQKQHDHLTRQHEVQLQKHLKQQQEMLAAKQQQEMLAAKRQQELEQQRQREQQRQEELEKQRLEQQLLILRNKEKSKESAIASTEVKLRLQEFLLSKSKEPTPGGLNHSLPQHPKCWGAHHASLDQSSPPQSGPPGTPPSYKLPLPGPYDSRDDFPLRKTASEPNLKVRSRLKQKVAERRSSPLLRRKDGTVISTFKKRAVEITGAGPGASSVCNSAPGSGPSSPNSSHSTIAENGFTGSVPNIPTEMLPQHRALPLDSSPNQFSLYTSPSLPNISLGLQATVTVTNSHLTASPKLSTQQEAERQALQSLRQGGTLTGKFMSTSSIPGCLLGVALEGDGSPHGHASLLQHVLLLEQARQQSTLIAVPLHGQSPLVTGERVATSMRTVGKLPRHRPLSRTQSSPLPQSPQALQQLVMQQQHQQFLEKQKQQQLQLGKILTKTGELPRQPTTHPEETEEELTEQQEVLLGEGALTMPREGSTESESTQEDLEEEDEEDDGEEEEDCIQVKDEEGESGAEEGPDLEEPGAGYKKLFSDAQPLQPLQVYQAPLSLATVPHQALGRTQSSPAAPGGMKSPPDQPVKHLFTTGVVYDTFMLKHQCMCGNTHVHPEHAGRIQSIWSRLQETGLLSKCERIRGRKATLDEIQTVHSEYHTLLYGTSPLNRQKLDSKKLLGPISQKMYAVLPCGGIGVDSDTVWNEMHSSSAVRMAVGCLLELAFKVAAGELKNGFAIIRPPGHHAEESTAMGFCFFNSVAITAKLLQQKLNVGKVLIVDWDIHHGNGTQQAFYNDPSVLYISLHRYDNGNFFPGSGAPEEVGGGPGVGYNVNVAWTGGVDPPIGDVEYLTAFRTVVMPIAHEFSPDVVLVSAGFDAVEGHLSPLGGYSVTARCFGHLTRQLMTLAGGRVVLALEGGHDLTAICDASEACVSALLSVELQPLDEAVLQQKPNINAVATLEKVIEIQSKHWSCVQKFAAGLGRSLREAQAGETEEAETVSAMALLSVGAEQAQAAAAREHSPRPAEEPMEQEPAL
Sequence of Histone deacetylase 2 (Homo sapiens) (Q92769 whole entry): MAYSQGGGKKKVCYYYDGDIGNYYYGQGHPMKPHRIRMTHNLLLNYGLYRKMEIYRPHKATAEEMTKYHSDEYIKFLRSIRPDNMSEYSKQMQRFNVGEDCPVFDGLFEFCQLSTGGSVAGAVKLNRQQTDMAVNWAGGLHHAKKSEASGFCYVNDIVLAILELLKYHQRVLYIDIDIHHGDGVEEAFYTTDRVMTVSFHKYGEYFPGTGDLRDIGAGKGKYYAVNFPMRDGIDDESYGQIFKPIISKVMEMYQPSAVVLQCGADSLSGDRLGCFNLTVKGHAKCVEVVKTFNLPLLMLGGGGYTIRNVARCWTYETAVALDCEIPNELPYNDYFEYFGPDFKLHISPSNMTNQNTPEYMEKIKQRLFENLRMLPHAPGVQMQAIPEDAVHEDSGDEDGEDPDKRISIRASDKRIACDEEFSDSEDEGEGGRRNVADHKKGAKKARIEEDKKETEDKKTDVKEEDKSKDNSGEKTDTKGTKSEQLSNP
Sequence of Histone deacetylase 3 (Homo sapiens) (O15379 whole entry): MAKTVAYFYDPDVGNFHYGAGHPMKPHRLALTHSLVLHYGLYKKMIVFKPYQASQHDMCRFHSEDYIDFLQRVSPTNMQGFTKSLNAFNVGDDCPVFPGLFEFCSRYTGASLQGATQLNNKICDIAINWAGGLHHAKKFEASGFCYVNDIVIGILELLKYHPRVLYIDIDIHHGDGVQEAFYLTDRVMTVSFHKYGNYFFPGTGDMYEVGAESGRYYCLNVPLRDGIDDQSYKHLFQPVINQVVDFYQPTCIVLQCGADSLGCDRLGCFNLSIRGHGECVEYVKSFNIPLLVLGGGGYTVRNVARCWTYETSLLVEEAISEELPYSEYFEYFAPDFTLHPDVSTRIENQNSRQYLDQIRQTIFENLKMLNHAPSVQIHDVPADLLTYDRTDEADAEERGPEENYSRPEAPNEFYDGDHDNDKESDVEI
Sequence of Histone deacetylase 4 (Homo sapiens) (P56524 whole entry): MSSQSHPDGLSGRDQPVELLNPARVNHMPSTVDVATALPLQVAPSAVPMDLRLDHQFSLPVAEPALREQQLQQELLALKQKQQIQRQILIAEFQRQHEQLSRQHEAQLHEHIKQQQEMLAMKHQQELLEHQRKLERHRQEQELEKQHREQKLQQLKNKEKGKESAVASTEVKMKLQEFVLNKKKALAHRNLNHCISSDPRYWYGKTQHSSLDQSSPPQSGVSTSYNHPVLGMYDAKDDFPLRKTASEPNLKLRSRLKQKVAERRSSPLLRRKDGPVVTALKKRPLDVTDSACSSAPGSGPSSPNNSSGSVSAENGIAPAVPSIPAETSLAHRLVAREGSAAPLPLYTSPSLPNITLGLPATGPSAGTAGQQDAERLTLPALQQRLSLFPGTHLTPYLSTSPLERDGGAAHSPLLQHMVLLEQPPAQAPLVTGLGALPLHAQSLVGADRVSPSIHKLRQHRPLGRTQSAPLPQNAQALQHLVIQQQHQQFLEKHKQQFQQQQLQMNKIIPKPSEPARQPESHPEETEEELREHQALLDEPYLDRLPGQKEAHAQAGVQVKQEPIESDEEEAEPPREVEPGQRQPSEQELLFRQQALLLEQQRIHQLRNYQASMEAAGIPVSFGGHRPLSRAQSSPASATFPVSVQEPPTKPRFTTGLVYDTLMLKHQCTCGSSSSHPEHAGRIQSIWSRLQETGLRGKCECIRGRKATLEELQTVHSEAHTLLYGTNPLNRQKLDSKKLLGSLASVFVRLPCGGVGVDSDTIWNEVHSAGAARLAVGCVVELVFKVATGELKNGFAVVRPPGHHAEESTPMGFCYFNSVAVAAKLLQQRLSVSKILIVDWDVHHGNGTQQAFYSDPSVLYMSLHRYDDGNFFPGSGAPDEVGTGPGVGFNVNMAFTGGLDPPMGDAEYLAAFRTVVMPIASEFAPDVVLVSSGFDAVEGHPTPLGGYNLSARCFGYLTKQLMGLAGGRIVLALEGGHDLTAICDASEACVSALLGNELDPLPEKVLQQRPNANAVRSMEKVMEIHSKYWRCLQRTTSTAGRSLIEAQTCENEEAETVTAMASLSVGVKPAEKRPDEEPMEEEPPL
Sequence of Histone deacetylase 7 (Homo sapiens) (Q8WUI4 whole entry): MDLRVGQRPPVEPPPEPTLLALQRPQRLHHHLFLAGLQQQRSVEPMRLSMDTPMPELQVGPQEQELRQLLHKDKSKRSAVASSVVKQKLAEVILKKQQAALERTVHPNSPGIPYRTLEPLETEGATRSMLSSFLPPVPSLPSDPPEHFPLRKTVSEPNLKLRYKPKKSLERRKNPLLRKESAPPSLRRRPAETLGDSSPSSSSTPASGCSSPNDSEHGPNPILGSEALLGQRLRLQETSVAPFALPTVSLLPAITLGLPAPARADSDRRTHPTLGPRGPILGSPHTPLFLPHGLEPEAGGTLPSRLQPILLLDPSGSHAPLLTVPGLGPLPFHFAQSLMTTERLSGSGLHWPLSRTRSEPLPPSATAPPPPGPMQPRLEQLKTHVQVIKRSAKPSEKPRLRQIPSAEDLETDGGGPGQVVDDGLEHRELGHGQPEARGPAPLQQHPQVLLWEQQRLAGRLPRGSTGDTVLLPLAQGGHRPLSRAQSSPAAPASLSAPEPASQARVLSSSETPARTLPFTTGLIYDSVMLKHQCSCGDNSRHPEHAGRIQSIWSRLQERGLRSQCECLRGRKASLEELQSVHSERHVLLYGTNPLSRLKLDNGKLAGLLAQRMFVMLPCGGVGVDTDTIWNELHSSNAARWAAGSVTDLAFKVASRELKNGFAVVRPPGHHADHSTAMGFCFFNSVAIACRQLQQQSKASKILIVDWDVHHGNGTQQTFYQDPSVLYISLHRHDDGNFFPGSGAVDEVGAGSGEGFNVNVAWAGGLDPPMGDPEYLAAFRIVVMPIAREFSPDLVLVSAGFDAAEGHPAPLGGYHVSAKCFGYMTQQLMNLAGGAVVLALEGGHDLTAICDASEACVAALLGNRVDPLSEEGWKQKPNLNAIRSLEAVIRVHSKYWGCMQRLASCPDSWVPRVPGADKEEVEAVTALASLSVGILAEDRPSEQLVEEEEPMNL

Structure (SMILES) | inhibition [1] | inhibition [2] | inhibition [3] | inhibition [4] | GI50 (PC-3) | IC50 [5] | GI50 (U-87 MG) | GI50 (BXPC-3) | GI50 (HT-29) | inhibition [6] | Activity [8] | GI50 (K-562R) | GI50 (K562) | GI50 (MCF7) | inhibition [9] | GI50 (MIA PaCa-2) | inhibition [10] | other results
C=C(c1ccc(OC)c(O)c1)c1cc(OC)c(OC)c(OC)c1 | inactive | inactive | inactive | inactive | 3 nM | 2000 nM | 8 nM | 20 nM | 276 nM | inactive | 81.7% | 2.2 nM | 5.2 nM | 8 nM | inactive | 10 nM | inactive | logP [7]: 2.16; IC50 (Histone deacetylase 11): Not Active
C=C(c1ccc(OC)c(/C=C/C(=O)NO)c1)c1cc(OC)c(OC)c(OC)c1 | < 50% | < 50% | < 50% | 95% | 0.4 nM | 1600 nM | 1.6 nM | 2.9 nM | 2.04 nM | < 50% | 82.1% | 1.4 nM | 1.6 nM | 2 nM | < 50% | 5.1 nM | < 50% | logP ([7]; read-out: logP): 2.93; IC50 (Histone deacetylase 11; read-out: IC50): 10000 nM
